Key:
[1] = target: T1, human URAT1 uptake transporter (Homo sapiens, UniProt Q96S37); assay: In vitro interaction study with the human URAT1 uptake transporter (uric acid uptake in MDCKII cells); assay type: cell-based; details: MDCK-II, at a concentration of 10 μM, read-out: Inhibition of URAT1 mediated uric acid accumulation
T1 construct: expressed in transfected cells
T1 sequence (Q96S37 1-553): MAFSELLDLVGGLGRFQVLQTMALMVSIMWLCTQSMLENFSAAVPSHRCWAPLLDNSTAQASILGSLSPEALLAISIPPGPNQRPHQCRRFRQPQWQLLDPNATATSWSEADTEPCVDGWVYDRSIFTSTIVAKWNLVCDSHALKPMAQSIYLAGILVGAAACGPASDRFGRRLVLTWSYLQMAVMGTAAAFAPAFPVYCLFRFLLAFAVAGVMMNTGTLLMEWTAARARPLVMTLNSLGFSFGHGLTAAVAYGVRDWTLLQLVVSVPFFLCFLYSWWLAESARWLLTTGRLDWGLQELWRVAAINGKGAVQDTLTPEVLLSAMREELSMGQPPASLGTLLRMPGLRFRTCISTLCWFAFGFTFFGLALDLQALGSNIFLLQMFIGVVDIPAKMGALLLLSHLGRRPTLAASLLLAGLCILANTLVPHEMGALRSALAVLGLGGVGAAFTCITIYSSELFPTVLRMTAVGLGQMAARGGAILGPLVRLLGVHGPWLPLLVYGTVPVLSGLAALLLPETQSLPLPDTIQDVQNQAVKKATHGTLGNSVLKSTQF
Experimental: Uptake experiments were performed using MDCKII cells stably expressing the human URAT1 uptake transporter. Cells were cultured at 37±1° C. in an atmosphere of 95:5 air:CO2 and were plated onto standard 96-well tissue culture plates at the cell number described in Table 5.
Radiolabeled probe substrate transport was determined by measuring an aliquot (35 μL) from each well for liquid scintillation counting.

[2] = Stability in human microsomes; assay type: in vitro ADME
CYP2C9 = CYP2C9 (Homo sapiens, UniProt P11712); assay: CYP2C9 metabolic pathway / metabolite formation; assay type: in vitro ADME
CYP2C9, sequence (P11712 whole entry): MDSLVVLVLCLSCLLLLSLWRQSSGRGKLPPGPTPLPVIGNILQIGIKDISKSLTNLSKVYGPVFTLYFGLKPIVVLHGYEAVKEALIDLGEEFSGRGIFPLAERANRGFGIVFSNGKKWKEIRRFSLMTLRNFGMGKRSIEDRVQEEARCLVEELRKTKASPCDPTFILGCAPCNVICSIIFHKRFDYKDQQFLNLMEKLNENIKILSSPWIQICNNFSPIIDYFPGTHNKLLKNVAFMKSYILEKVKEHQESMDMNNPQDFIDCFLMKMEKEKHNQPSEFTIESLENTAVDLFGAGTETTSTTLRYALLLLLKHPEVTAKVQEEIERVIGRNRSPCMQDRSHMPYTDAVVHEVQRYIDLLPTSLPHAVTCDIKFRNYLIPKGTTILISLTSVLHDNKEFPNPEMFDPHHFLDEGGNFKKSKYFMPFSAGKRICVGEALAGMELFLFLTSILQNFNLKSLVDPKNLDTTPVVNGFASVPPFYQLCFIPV

[3] = Dynamic vapor sorption (DVS); assay type: physicochemical; details: for Post-GVS analysis by XRPD (change of form): after DVS cycle 0-90-0% RH; for Moisture uptake (DVS): between 0-90% RH
Experimental: DVS studies were performed using a DVS Intrinsic (SMS, UK) or IGASORP (Hiden, UK). 10 to 50 mg of compound was transferred into the DVS and the weight change recorded with respect to a varying atmospheric humidity at 25° C. using the following parameters:
Drying at 40° C. until dm/dt<±0.002%/min
Min time: 30 min, Max time: 120 min (for IGASORP)
Characterize the sample after the DVS experiment by XRPD

[4] = cited from earlier work

SMILES: [2H]c1c([2H])c([2H])c2c(C(=O)c3cc(Br)c(O)c(Br)c3)c(C(C)O)oc2c1[2H] (centres unmarked) [Compound 1, (3,5-dibromo-4-hydroxyphenyl)(2-(1-hydroxyethyl)benzofuran-3-yl-4,5,6,7-d4)methanone]
- inhibition at 10 µM [1]: 100%
- Stability in human microsomes compared with benzbromarone [2]: more stable than benzbromarone in human microsomes
- Formation of 6-OH benzbromarone and 5,6-di-OH benzbromarone metabolites (CYP2C9): not formed
- CYP2C9 metabolic pathway (CYP2C9; compared with benzbromarone): significantly reduced

SMILES: [2H]c1c([2H])c([2H])c2c(C(=O)c3cc(Br)c(O)c(Br)c3)c(C(C)O)oc2c1[2H] (centres unmarked) [Form 3, (3,5-dibromo-4-hydroxyphenyl)(2-(1-hydroxyethyl)benzofuran-3-yl-4,5,6,7-d4)methanone]
- Hygroscopicity ([3]; DVS, 25° C.): non-hygroscopic
- Post-GVS analysis by XRPD (change of form) [3]: no change
- Moisture uptake (DVS) ([3]; 25° C.): 0.04%

SMILES: CCc1oc2ccccc2c1C(=O)c1cc(Br)c(O)c(Br)c1 [Benzbromarone]
- inhibition at 10 µM [1]: 98%
- Serum uric acid (sUA) level reached ([4]; chronic therapy): < 6 mg/dL
- Hepatotoxicity ([4]; in certain patients): associated with hepatotoxicity

SMILES: [2H]c1c([2H])c([2H])c2c(C(=O)c3cc(Br)c(O)c(Br)c3)c(C(C)O)oc2c1[2H] (centres unmarked) [Form 2, (3,5-dibromo-4-hydroxyphenyl)(2-(1-hydroxyethyl)benzofuran-3-yl-4,5,6,7-d4)methanone]
- Hygroscopicity ([3]; DVS, 25° C.): non-hygroscopic
- Post-GVS analysis by XRPD (change of form) [3]: no change
- Moisture uptake (DVS) ([3]; 25° C.): 0.08%

SMILES: [2H]c1c([2H])c([2H])c2c(C(=O)c3cc(Br)c(O)c(Br)c3)c(C(C)O)oc2c1[2H] (centres unmarked) [Form 1, (3,5-dibromo-4-hydroxyphenyl)(2-(1-hydroxyethyl)benzofuran-3-yl-4,5,6,7-d4)methanone]
- RH at which the dehydrated form converted to hydrated form ([3]; DVS, 25° C.): ≥ 20%
